From patent US10632147B2, “Methods and compositions for treating inflammatory disorders” (priority 2007, dated 2020)

Assays:
[1] = system: Staphylococcus saprophyticus ATCC #15305; assay: Microbial Time Kill Assay; assay type: cell-based; conditions: 150 ppm AFC, 15 second contact time
[2] = system: Klebsiella pneumonia ATCC #4352; assay: Microbial Time Kill Assay; assay type: cell-based; conditions: 150 ppm AFC, 15 second contact time
[3] = system: Staphylococcus epidermidis ATCC #14990; assay: Microbial Time Kill Assay; assay type: cell-based; conditions: 150 ppm AFC, 15 second contact time
[4] = system: Escherichia coli (strain CM891); assay: Bacterial mutagenicity; conditions: 241-252 ppm AFC, absence and presence of liver S9 fraction
[5] = Pilot study HOCl versus Sulfamylon as irrigant over excised and grafted burn
[6] = system: MS2; assay: MS2 coliphage virus carrier test; conditions: ceramic tiles and stainless steels, 1 min contact time, 20-200 ppm, infectivity
[7] = system: Escherichia coli ATCC #8739; assay: Microbial Time Kill Assay; assay type: cell-based; conditions: 150 ppm AFC, 15 second contact time
[8] = system: Bacillus cereus CIP 7 803; assay: Sporicidal suspension test; assay type: cell-based
[9] = system: Adenovirus, type V; assay: Virucidal suspension test; assay type: cell-based
[10] = system: Staphylococcus hominis ATCC #25615; assay: Microbial Time Kill Assay; assay type: cell-based; conditions: 150 ppm AFC, 15 second contact time
[11] = system: human norovirus; assay: Norovirus suspension test; assay type: cell-based; conditions: 20-200 mg/L, within a contact time of 20 seconds
[12] = system: Bacillus subtilis var. niger CIP 7 718; assay: Sporicidal suspension test; assay type: cell-based
Method: (§1) Sporicidal activity tests were performed using hypochlorous acid solution against Bacillus cereus CIP 7803, Bacillus subtilis CIP 7718, Clostridium sporogenes CIP 7939. Stock spore suspensions of Bacillus cereus CIP 7803, Bacillus subtilis CIP 7718, Clostridium sporogenes CIP 7939 were obtained from the Pasteur Institute's National Collection for the Culture of micro-organisms. Spore suspensions (1 ml) were added to 4 ml of sterile distilled water and 5 ml of hypochlorous acid solution at a range of concentrations at 20° C. After an exposure time of 60 minutes, 1 ml samples were neutralized using standard quench solution. All samples were serially diluted, plated out on selective agar, incubated aerobically or anaerobically at either 30° C. or 37° C. for 72 hours and colonies forming units counted.

[13] = system: Clostridium sporogenes CIP 7 939; assay: Sporicidal suspension test; assay type: cell-based
Method: as §1

[14] = system: Aspergillus niger ATCC 16404; assay: Fungicidal suspension test; assay type: cell-based
Method: (§2) Fungicidal activity tests were performed using hypochlorous acid (140-150 ppm) against Candida albicans ATCC 10231 and Aspergillus niger ATCC 16404. Stock culture of Candida albicans ATCC 10231 and Aspergillus niger ATCC 16404 were grown and maintained on Malt Extract Agar at 30° C. […] All samples were serially diluted, plated out on Tryptic Soy Agar, incubated at 37° C. for 3 days and colonies forming units counted.

[15] = system: Candida albicans ATCC 10231; assay: Fungicidal suspension test; assay type: cell-based
Method: as §2

[16] = system: Staphylococcus haemolyticus ATCC #29968; assay: Microbial Time Kill Assay; assay type: cell-based; conditions: 150 ppm AFC, 15 second contact time
[17] = system: Staphylococcus aureus ATCC 6538; assay: Bactericidal suspension test; assay type: cell-based
[18] = system: Enterococcus faecium ATCC #35667; assay: Microbial Time Kill Assay; assay type: cell-based; conditions: 150 ppm AFC, 15 second contact time
[19] = system: human norovirus; assay: Norovirus carrier test; conditions: ceramic tiles and stainless steels, 1 min contact time, 20-200 ppm, RNA testing
[20] = system: wound pathogens including S. aureus, P. aeruginosa, E. coli, Enterococcus spp., and Candida spp.; assay: In vitro antimicrobial studies against wound pathogens; assay type: cell-based; conditions: within a 15 seconds contact time, even at ≤150 ppm
[21] = system: coliphage MS2; assay: MS2 coliphage suspension test; assay type: cell-based; conditions: 20-200 mg/L, within a contact time of 20 seconds
[22] = system: Staphylococcus aureus (MRSA) ATCC #33591; assay: Microbial Time Kill Assay; assay type: cell-based; conditions: 150 ppm AFC, 15 second contact time
[23] = Acute oral toxicity; conditions: 500 ppm AFC, single dose of 5 g/kg orally, observed up to 14 days
[24] = system: Micrococcus luteus ATCC #10240; assay: Microbial Time Kill Assay; assay type: cell-based; conditions: 150 ppm AFC, 15 second contact time
[25] = system: Pseudomonas aeruginosa ATCC #9027; assay: Microbial Time Kill Assay; assay type: cell-based; conditions: 150 ppm AFC, 15 second contact time
[26] = system: Bacteroides fragilis ATCC #25285; assay: Microbial Time Kill Assay; assay type: cell-based; conditions: 150 ppm AFC, 15 second contact time
[27] = system: Haemophilus influenza ATCC #8149; assay: Microbial Time Kill Assay; assay type: cell-based; conditions: 150 ppm AFC, 15 second contact time
[28] = hypochlorous acid 40-180 ppm, suspension test

OCl [hypochlorous acid]
% Reduction (% Kill) [1]: >99.999% | HOCl Solution Log10 [1]: ≤1 | HOCl Solution Survivors [1]: <10 | Log Reduction [1]: ≥5.68 | % Reduction (% Kill) [2]: >99.999% | HOCl Solution Log10 [2]: ≤1 | HOCl Solution Survivors [2]: <10 | Log Reduction [2]: ≥5.70 | % Reduction (% Kill) [3]: >99.999% | HOCl Solution Log10 [3]: ≤1 | HOCl Solution Survivors [3]: <10 | mutagenic activity [4]: No evidence of mutagenic activity | safety profile (adverse effects) [5]: absence of adverse effects | graft take and infection prevention compared with Sulfamylon ([5]; 150-180 ppm AFC): equivalency | pain reduction (visual analogue scale) compared with Sulfamylon group ([5]; 150-180 ppm AFC): better | inactivation of MS2 [6]: > 3 log10 | % Reduction (% Kill) [7]: >99.999% | HOCl Solution Log10 [7]: ≤1 | HOCl Solution Survivors [7]: <10 | Log Reduction [7]: ≥5.28 | contact time after which pass was achieved [8, 28]: 60 min | Test Result (Log reduction) ([8]; in 60 min., 20° C. ± 1° C.): >10^6 in 60 min. | Test Result (Log reduction) [9]: >10^4 in 15 min. | contact time after which pass was achieved [9]: 15 min | % Reduction (% Kill) [10]: >99.999% | HOCl Solution Log10 [10]: ≤1 | HOCl Solution Survivors [10]: <10 | Log Reduction [10]: ≥5.68 | reduction of human norovirus [11]: 3 log10 | contact time after which pass was achieved [12, 28]: 60 min | Test Result (Log reduction) ([12]; in 60 min., 20° C. ± 1° C.): >10^6 in 60 min. | contact time after which pass was achieved [13, 28]: 60 min | Test Result (Log reduction) ([13]; in 60 min., 20° C. ± 1° C.): >10^6 in 60 min. | contact time after which pass was achieved [14, 28]: 15 s | Test Result (Log reduction) ([14]; in 5 min., 20° C. ± 1° C.): >10^4 in 5 min. | contact time after which pass was achieved [15, 28]: 15 s | Test Result (Log reduction) ([15]; in 5 min., 20° C. ± 1° C.): >10^4 in 5 min. | % Reduction (% Kill) [16]: >99.999% | HOCl Solution Log10 [16]: ≤1 | HOCl Solution Survivors [16]: <10 | Log Reduction [16]: ≥5.57 | contact time after which pass was achieved [17, 28]: 15 s | Test Result (Log reduction) ([17]; in 5 min., 20° C. ± 1° C.): >10^5 in 5 min. | % Reduction (% Kill) [18]: >99.999% | HOCl Solution Log10 [18]: ≤1 | HOCl Solution Survivors [18]: <10 | Log Reduction [18]: ≥5.08 | inactivation of human norovirus [19]: > 3 log10 | kill [20]: > 5 log | reduction of MS2 [21]: 3 log10 | % Reduction (% Kill) [22]: >99.999% | HOCl Solution Log10 [22]: ≤1 | HOCl Solution Survivors [22]: <10 | Log Reduction [22]: ≥5.20 | mortality or evidence of toxicity [23]: no mortality or evidence of toxicity | % Reduction (% Kill) [24]: >99.999% | HOCl Solution Log10 [24]: ≤1 | HOCl Solution Survivors [24]: <10 | Log Reduction [24]: ≥5.04 | % Reduction (% Kill) [25]: >99.999% | HOCl Solution Log10 [25]: ≤1 | HOCl Solution Survivors [25]: <10 | Log Reduction [25]: ≥5.11 | % Reduction (% Kill) [26]: >99.999% | HOCl Solution Log10 [26]: ≤1 | HOCl Solution Survivors [26]: <10 | Log Reduction [26]: ≥5.66 | % Reduction (% Kill) [27]: >99.999% | HOCl Solution Log10 [27]: ≤1 | HOCl Solution Survivors [27]: <10 | Log Reduction [27]: ≥5.59
